Experimental findings from PMC10175918 (Communications Biology, 2023) are described below.

The structures appear in SMILES notation. Where “and” joins values, the source holds several entries; their conditions need not be identical. Identical values can stand only once. Like-named read-outs stand apart in the source and are kept apart here.

In assay [1] the target is T1, G protein-coupled receptor 68 long (Homo sapiens, UniProt Q15743).
T1 construct: gene GPR68; long isoform
Kind of assay: cell-based. Also on record: species or system HEK293A; AP-TGFα shedding assay, transfected GPCR plus chimeric Gα mixture, AP release as % of TPA response. The conditions noted are these: HEK293-A.

The target of assay [2] is T2, G protein-coupled receptor 65 (Homo sapiens, UniProt Q8IYL9).
T2 construct: gene GPR65
T2 sequence (Q8IYL9 whole entry): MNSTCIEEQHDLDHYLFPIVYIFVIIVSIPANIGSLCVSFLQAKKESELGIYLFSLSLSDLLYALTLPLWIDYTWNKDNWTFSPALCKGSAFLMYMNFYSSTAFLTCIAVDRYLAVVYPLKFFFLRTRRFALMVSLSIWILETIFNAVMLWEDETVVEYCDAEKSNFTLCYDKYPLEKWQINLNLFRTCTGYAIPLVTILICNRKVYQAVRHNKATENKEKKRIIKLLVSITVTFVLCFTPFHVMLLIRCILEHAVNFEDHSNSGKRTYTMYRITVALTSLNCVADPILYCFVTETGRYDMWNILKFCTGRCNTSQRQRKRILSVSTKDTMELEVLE
Kind of assay: cell-based. The arrangement: species or system HEK293A; AP-TGFα shedding assay, transfected GPCR plus chimeric Gα mixture, AP release as % of TPA response. The conditions noted are these: HEK293-A.

Assay [3] addresses T3, 5-hydroxytryptamine receptor 1E (Homo sapiens, UniProt P28566).
T3 construct: gene HTR1E
Put plainly: cell-based. The arrangement: species or system HEK293A; AP-TGFα shedding assay, transfected GPCR plus chimeric Gα mixture, AP release as % of TPA response. To be noted: HEK293-A.

Assay [4] concerns the target T4, G protein-coupled receptor 18 (Homo sapiens, UniProt Q14330).
T4 construct: gene GPR18
T4 sequence (Q14330 1-331): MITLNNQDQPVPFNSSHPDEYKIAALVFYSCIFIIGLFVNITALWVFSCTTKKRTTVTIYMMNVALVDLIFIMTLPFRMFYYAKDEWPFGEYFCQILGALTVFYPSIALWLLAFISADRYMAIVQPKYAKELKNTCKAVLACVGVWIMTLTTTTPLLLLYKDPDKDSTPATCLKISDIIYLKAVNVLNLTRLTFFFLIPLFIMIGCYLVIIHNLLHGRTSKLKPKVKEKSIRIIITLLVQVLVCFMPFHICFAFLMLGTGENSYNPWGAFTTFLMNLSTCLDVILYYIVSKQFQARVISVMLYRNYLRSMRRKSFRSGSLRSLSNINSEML
Kind of assay: cell-based. Also on record: species or system HEK293A; AP-TGFα shedding assay, transfected GPCR plus chimeric Gα mixture, AP release as % of TPA response. To be noted: HEK293-A.

The target in assay [5] is T5, C-C motif chemokine receptor 7 (Homo sapiens, UniProt P32248).
T5 construct: gene CCR7
T5 sequence (P32248 1-378): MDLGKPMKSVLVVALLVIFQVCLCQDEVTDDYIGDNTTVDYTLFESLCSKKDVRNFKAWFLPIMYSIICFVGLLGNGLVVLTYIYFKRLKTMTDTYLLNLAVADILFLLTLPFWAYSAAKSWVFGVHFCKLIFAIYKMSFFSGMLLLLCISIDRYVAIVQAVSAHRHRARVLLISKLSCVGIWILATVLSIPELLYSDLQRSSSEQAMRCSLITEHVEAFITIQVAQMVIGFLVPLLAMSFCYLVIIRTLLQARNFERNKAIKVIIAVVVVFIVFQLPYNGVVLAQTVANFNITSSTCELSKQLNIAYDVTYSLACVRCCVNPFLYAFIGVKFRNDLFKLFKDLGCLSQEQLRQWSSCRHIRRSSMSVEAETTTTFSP
Kind of assay: cell-based. The arrangement: species or system HEK293A; AP-TGFα shedding assay, transfected GPCR plus chimeric Gα mixture, AP release as % of TPA response. The conditions noted are these: HEK293-A.

For another assay, the target named is T6, GPR132 (Homo sapiens, UniProt Q9UNW8).
T6 sequence (Q9UNW8 1-380): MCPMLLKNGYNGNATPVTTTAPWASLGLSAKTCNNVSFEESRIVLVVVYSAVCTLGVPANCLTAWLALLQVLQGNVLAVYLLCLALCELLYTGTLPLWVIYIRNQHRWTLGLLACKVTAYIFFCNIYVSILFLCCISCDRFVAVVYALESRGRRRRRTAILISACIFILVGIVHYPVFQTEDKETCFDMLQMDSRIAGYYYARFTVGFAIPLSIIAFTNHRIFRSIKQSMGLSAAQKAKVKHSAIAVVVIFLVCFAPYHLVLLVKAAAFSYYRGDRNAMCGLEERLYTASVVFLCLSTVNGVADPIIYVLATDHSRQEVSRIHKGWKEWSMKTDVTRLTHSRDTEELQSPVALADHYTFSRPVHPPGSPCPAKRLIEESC
Kind of assay: cell-based. The arrangement: species or system HEK293A; AP-TGFα shedding assay, transfected GPCR plus chimeric Gα mixture, AP release as % of TPA response. To be noted: HEK293-A.

For assay [6], the target named is T7, leukotriene B4 receptor 2 (Homo sapiens, UniProt Q9NPC1).
T7 construct: gene LTB4R2
T7 sequence (Q9NPC1 1-358): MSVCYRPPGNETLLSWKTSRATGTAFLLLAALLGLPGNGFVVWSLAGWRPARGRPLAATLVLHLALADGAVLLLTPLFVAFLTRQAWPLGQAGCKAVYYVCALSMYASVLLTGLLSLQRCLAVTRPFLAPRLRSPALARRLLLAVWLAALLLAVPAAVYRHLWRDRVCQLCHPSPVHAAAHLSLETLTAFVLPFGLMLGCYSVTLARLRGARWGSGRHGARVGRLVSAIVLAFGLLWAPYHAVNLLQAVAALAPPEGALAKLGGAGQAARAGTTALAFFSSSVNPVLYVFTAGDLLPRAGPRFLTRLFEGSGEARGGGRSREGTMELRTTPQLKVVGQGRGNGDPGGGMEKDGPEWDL
Put plainly: cell-based. The arrangement: species or system HEK293A; AP-TGFα shedding assay, transfected GPCR plus chimeric Gα mixture, AP release as % of TPA response. To be noted: HEK293-A.

The target in assay [7] is T8, purinergic receptor P2Y, G-protein coupled, 1 (Homo sapiens, UniProt P47900).
T8 construct: gene P2RY1
T8 sequence (P47900 whole entry): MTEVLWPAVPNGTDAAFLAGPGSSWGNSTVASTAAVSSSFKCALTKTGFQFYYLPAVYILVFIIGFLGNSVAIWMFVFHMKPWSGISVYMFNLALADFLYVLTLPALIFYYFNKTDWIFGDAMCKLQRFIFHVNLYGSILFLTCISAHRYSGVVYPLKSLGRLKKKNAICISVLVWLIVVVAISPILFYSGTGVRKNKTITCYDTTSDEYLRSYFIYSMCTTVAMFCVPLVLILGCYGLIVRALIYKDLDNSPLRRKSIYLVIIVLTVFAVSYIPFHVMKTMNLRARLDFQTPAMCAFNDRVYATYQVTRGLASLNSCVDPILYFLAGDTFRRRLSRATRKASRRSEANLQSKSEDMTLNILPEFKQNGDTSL
Kind of assay: cell-based. Also on record: species or system HEK293A; AP-TGFα shedding assay, transfected GPCR plus chimeric Gα mixture, AP release as % of TPA response. The conditions noted are these: HEK293-A.

For assay [8], the target named is T9, urotensin-II receptor (UTS2R) (Homo sapiens, UniProt Q9UKP6).
T9 construct: expressed in transfected cells; host or cells: HEK293A
T9 sequence (Q9UKP6 1-389): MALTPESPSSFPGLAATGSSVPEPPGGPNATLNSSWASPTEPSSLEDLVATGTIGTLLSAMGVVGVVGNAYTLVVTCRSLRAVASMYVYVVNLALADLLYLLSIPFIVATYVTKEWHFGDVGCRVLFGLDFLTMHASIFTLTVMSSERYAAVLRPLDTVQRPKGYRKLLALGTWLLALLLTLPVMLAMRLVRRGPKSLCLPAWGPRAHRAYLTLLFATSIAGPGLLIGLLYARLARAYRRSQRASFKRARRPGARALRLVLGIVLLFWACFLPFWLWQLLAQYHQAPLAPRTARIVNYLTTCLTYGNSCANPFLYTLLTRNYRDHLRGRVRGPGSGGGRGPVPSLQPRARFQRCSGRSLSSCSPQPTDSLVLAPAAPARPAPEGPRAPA
Put plainly: TGFα-shedding assay, concentration-response on UTS2R (endogenous G protein), with or without urantide. The format is cell-based.

The mark [9] stands for this setting: read-out: % GPCR activation of 10µM Molnupiravir compared to TPA.
Where [10] appears, read: read-out: % GPCR activation of 10μM Sofosbuvir compared to TPA.
[11] abbreviates: read-out: % GPCR activation of 10μM GS441524 compared to TPA.
[12] abbreviates: read-out: % GPCR activation of 100μM Favipiravir compared to TPA.
[13] abbreviates: read-out: % GPCR activation of 10µM Remdesivir compared to TPA.

T3 sequence (P28566 whole entry): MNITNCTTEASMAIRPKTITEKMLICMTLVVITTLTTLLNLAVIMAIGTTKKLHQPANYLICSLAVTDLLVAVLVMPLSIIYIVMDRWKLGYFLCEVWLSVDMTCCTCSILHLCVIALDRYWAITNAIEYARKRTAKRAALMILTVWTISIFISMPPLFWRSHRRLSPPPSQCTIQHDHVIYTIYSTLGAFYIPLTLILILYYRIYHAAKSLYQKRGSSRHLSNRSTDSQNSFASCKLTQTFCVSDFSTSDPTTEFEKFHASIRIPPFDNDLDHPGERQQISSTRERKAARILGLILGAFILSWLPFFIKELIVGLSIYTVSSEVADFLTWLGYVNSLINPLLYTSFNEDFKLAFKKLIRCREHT
T1 sequence (Q15743 whole entry, canonical isoform): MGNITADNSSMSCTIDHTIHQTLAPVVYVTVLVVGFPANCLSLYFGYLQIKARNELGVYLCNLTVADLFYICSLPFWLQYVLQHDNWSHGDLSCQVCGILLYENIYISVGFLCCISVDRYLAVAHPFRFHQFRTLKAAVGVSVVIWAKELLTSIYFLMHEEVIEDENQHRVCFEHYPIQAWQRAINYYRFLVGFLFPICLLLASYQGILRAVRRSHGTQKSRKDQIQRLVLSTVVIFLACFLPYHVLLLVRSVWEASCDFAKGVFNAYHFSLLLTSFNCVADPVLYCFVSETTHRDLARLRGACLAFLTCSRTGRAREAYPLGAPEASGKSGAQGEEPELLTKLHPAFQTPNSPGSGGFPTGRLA

`CC(C)C(=O)OC[C@H]1O[C@@H](n2ccc(NO)nc2=O)[C@H](O)[C@@H]1O` [molnupiravir]: the activity at 10 µM in [1] (setting [9]) is -160%; in assay [2] (setting [9]), -8.38%; in assay [3] (setting [9]), -0.994%; in assay [4] (setting [9]), -5.39%; in assay [5] (setting [9]), 0.546%; on GPR132 (setting [9]), -1.8%. Moreover, the activity at 10 µM is -0.206% in [6] (setting [9]) and -11.8% in assay [7] (setting [9]).
In the case of `CC(C)OC(=O)[C@H](C)N[P@](=O)(OC[C@H]1O[C@@H](n2ccc(=O)[nH]c2=O)[C@](C)(F)[C@@H]1O)Oc1ccccc1` [sofosbuvir], in assay [8] (TGFα-shedding, screening 10 μM and response curves (Fig. 1a, Supplementary Fig. 1a)), the UTS2R activation entry is given as “did not activate UTS2R”. Further, the activity at 10 µM was -162% in assay [1] (setting [10]); -10.5% in assay [2] (setting [10]); -1.21% in assay [3] (setting [10]); -3.04% in assay [4] (setting [10]); -0.917% in assay [5] (setting [10]); -1.37% on GPR132 (setting [10]). Besides, the activity at 10 µM in assay [6] (setting [10]) is 1.86%; in assay [7] (setting [10]), -4.63%.
For the compound `N#C[C@@]1(c2ccc3c(N)ncnn23)O[C@H](CO)[C@@H](O)[C@H]1O` [GS441524], the activity at 10 µM is 3.27% in assay [1] (setting [11]); -3.08% in assay [2] (setting [11]); -1.38% in assay [3] (setting [11]); 2.08% in assay [4] (setting [11]); -0.998% in [5] (setting [11]); -8.13% on GPR132 (setting [11]). The activity at 10 µM in assay [6] (setting [11]) is -0.182%; in [7] (setting [11]) it was -0.459%.
For `NC(=O)c1nc(F)cnc1O` [favipiravir, 6-fluoro-3-hydroxy-2-pyrazinecarboxamide], the activity at 100 µM was 5.02% in assay [1] (setting [12]); 1.28% in assay [2] (setting [12]); 0.555% in [3] (setting [12]); -1% in assay [4] (setting [12]); -0.335% in assay [5] (setting [12]); 7.4% on GPR132 (setting [12]). Also, the activity at 100 µM was -0.0275% in assay [6] (setting [12]) and 0.43% in assay [7] (setting [12]).
For `CCC(CC)COC(=O)[C@H](C)N[P@](=O)(OC[C@H]1O[C@@](C#N)(c2ccc3c(N)ncnn23)[C@H](O)[C@@H]1O)Oc1ccccc1` [remdesivir], the maximal response (Emax) in assay [8] was 47 ± 1.4%. The EC50 in [8] (WT EC50 (Remdesivir), wild-type UTS2R control run alongside the mutant) was 17.4 µM and 15.9 µM and 10.7 µM and 14 µM and 10.2 µM and 10.8 µM and 12.4 µM (2×) and 18 µM and 11.6 µM and 18.5 µM; in assay [8] (pEC50 (TGFα-shedding response for UTS2R), WT UTS2R, without chimeric Gα protein, HEK293A cells), 12.9 µM. For the same compound, in [8] (read-out: UTS2R activation (%AP-TGFα release), compound concentration Log10 (M) -5, without urantide), the activation at 10 µM came to 15%. The activation at 3.3 µM in assay [8] (read-out: UTS2R activation (%AP-TGFα release), compound concentration Log10 (M) -5.48149, without urantide) is 7.9%. Further, the activity at 10 µM was -2.93% in assay [1] (setting [13]); -1.39% in [2] (setting [13]); -0.0718% in assay [3] (setting [13]); 1.12% in [4] (setting [13]); 11% on GPR132 (setting [13]); -0.974% in assay [6] (setting [13]). Also, the activity at 10 µM in [7] (setting [13]) is 11%.

A word on the Emax: it is the size of the effect at its maximum, as opposed to the concentration needed. Broadly, the EC50 is the concentration at which the effect is half-maximal. A low value points to an effect from little substance.
